Measured values reported in US8907098B2, “Inhibitors of sphingosine kinase” (MERCK PATENT GmbH, priority 2009, dated 2014).

target: modified SphK1 (Homo sapiens, UniProt Q9NYA1); test: SphK1 biochemical kinase assay (384-well flashplate); settings: IC50 ranges; 5 nM modified SphK1, 1 μM ATP, 30° C., 120 min; read-out: SphK1 Inhibition IC50
Protocol: The kinase assay is carried out as a 384-well flashplate assay.
5 nM modified SphK1, 800 nM omega-biotinyl-D-erythro-sphingosine and 1 μM ATP (with 0.3 μCi of ^33P-ATP/well) are incubated in a total volume of 50 μl (25 mM HEPES, 5 mM MgCl2, 1 mM dithiothreitol, 0.01% of Brij35, 0.1% of BSA (fatty acid-free), pH 7.4) without or with test substance (5-10 concentrations) at 30° C. for 120 min. The reaction is terminated using 25 μl of 200 mM EDTA solution, filtered off with suction at room temperature after 30 min, and the cavities are washed 3 times with 100 μl of 0.9% NaCl solution. The non-specific proportion of the kinase reaction (blank) is determined using 0.5 mM NaCl. Radioactivity is measured in topcount. IC50 values are calculated using RS1.

modified SphK1, sequence (Q9NYA1 whole entry): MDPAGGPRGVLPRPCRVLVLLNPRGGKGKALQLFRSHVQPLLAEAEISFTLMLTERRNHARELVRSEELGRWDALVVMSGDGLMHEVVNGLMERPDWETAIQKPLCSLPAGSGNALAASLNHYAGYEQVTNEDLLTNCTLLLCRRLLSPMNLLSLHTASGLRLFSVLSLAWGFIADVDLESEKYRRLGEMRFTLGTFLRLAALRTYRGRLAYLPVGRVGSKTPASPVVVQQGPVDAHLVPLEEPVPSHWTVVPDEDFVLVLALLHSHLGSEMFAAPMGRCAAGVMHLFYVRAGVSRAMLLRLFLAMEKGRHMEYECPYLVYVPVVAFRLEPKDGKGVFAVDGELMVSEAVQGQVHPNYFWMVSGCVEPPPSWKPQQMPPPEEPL

| SMILES | IC50 [nM] |
| --- | --- |
| CC1(C)CCC(C)(C)c2cc(-c3csc(N4CCC(NCCCO)CC4)n3)ccc21 | < 100 |
| CC1(C)CCCc2cc(-c3csc(N4CCNCC4)n3)ccc21 [1-[4-(5,5-Dimethyl-5,6,7,8-tetrahydronaphthalen-2-yl)thiazol-2-yl]-piperazine] | 100 to 1000 |
| CC1(C)CCC(C)(C)c2cc(-c3csc(N4CCC(N(Cc5cc[nH]n5)Cc5cc[nH]n5)CC4)n3)ccc21 [Bis-(1H-pyrazol-3-ylmethyl)-{1-[4-(5,5,8,8-tetramethyl-5,6,7,8-tetrahydronaphthalen-2-yl)thiazol-2-yl]piperidin-4-yl}amine] | 100 to 1000 |
| CC1(C)CCC(C)(C)c2cc(-c3csc(C4CCCN(CCO)C4)n3)ccc21 (stereo not drawn) | 100 to 1000 |
| CC1(C)CCC(C)(C)c2cc(-c3csc(N4CC[C@@H](N)C4)n3)ccc21 | 100 to 1000 |
| CC1(C)CCC(C)(C)c2cc(-c3csc(N4CC[C@H](NCCCO)C4)n3)ccc21 | > 1000 |
| CC1(C)CCC(C)(C)c2cc(-c3nc(C4CCNCC4)cs3)ccc21 [4-[2-(5,5,8,8-Tetramethyl-5,6,7,8-tetrahydronaphthalen-2-yl)thiazol-4-yl]piperidine] | 100 to 1000 |
| CC1(C)CCC(C)(C)c2cc(-c3csc(N4CC[C@H](N)C4)n3)ccc21 | 100 to 1000 |
| CC1(C)CCC(C)(C)c2cc(-c3csc(N4CCN(CC(O)CO)CC4)n3)ccc21 (stereo not drawn) | 100 to 1000 |
| CC1(C)CCC(C)(C)c2cc(-c3csc(C4CCC(N)CC4)n3)ccc21 (stereo not drawn) | 100 to 1000 |
| CC1(C)CCC(C)(C)c2cc(-c3csc(N4CC[C@@H](NCCO)C4)n3)ccc21 | > 1000 |
| CN1CCN(C2CCN(c3nc(-c4ccc5c(c4)C(C)(C)CCC5(C)C)cs3)CC2)CC1 [1-Methyl-4-{1-[4-(5,5,8,8-tetramethyl-5,6,7,8-tetrahydronaphthalen-2-yl)thiazol-2-yl]piperidin-4-yl}piperazine] | 100 to 1000 |
| CN(C)C1CCN(c2nc(-c3ccc4c(c3)C(C)(C)CCC4(C)C)cs2)CC1 [Dimethyl-{1-[4-(5,5,8,8-tetramethyl-5,6,7,8-tetrahydronaphthalen-2-yl)thiazol-2-yl]piperidin-4-yl}amine] | < 100 |
| CC1(C)CCC(C)(C)c2cc(-c3csc(N4CCC(N(CCO)CCO)CC4)n3)ccc21 [2-((2-Hydroxyethyl)-{1-[4-(5,5,8,8-tetramethyl-5,6,7,8-tetrahydronaphthalen-2-yl)thiazol-2-yl]piperidin-4-yl}amino)ethanol] | 100 to 1000 |
| CC1(C)CCC(C)(C)c2cc(-c3csc(N4CCCC(C(=O)NCCCO)C4)n3)ccc21 (stereo not drawn) | > 1000 |
| CC1(C)CCc2cc(-c3csc(N4CCC(NCCCO)CC4)n3)ccc21 [3-{1-[4-(1,1-Dimethylindan-5-yl)thiazol-2-yl]piperidin-4-ylamino}propan-1-ol] | 100 to 1000 |
| CC1(C)CCC(C)(C)c2cc(-c3csc(N4CCC(N5CCOCC5)CC4)n3)ccc21 | > 1000 |
| CC1(C)CCC(C)(C)c2cc(-c3csc(N4CCC(NC[C@H](O)CO)CC4)n3)ccc21 | < 100 |
| CC1(C)CCC(C)(C)c2cc(-c3csc(N4CCC(NCC(O)CO)CC4)n3)ccc21 (stereo not drawn) | < 100 |
| CC1(C)CCC(C)(C)c2cc(-c3csc(N4CCC(CN)CC4)n3)ccc21 | 100 to 1000 |

| SMILES | IC50 [nM] |
| --- | --- |
| CCOC(=O)C1CCN(c2nc(-c3ccc4c(c3)C(C)(C)CCC4(C)C)cs2)CC1 [1-[4-(5,5,8,8-Tetramethyl-5,6,7,8-tetrahydronaphthalen-2-yl)thiazol-2-yl]piperidine-4-carboxylic acid ethyl ester] | > 1000 |
| CC(=O)NC1CCN(C2CCN(c3nc(-c4ccc5c(c4)C(C)(C)CCC5(C)C)cs3)CC2)C1 (stereo not drawn) | < 100 |
| CC1(C)CCC(C)(C)c2cc(-c3csc(N4CCC5(CCNCC5)CC4)n3)ccc21 [3-[4-(5,5,8,8-Tetramethyl-5,6,7,8-tetrahydronaphthalen-2-yl)thiazol-2-yl]-3,9-diazaspiro[5.5]undecane] | 100 to 1000 |
| CC1(C)CCC(C)(C)c2cc(-c3csc(N4CCN(C5CCCCC5O)CC4)n3)ccc21 (stereo not drawn) | 100 to 1000 |
| CC1(C)CCCc2cc(-c3csc(C4CCN(CCCCCO)C4)n3)ccc21 (stereo not drawn) | 100 to 1000 |
| CC1(C)CCC(C)(C)c2cc(-c3csc(N4CCC(NC[C@@H](N)CO)CC4)n3)ccc21 | 100 to 1000 |
| CC1(C)CCC(C)(C)c2cc(-c3ncc(C4CCNCC4)o3)ccc21 [4-[2-(5,5,8,8-Tetramethyl-5,6,7,8-tetrahydronaphthalen-2-yl)oxazol-5-yl]piperidine] | > 1000 |
| CC1(C)CCC(C)(C)c2cc(-c3csc(N4CCC(NCc5c[nH]cn5)CC4)n3)ccc21 [(1H-Imidazol-4-ylmethyl)-{1-[4-(5,5,8,8-tetramethyl-5,6,7,8-tetrahydronaphthalen-2-yl)thiazol-2-yl]piperidin-4-yl}amine] | < 100 |
| Cn1cncc1CNC1CCN(c2nc(-c3ccc4c(c3)C(C)(C)CCC4(C)C)cs2)CC1 [(3-Methyl-3H-imidazol-4-ylmethyl)-{1-[4-(5,5,8,8-tetramethyl-5,6,7,8-tetrahydronaphthalen-2-yl)thiazol-2-yl]piperidin-4-yl}amine] | 100 to 1000 |
| CC1(C)CCC(C)(C)c2cc(-c3csc(N4CCN(CCCO)CC4)n3)ccc21 | 100 to 1000 |
| CC1(C)CCC(C)(C)c2cc(-c3csc(N4CCC(CCCO)CC4)n3)ccc21 | > 1000 |
| CC1(C)CCC(C)(C)c2cc(-c3csc(N4CCC(N5CCCC(O)C5)CC4)n3)ccc21 (stereo not drawn) [1′-[4-(5,5,8,8-Tetramethyl-5,6,7,8-tetrahydronaphthalen-2-yl)thiazol-2-yl]-1,4′-bipiperidinyl-3-ol] | 100 to 1000 |
| CC1(C)CCC(C)(C)c2cc(-c3csc(N4CCC(N)CC4)n3)ccc21 [1-[4-(5,5,8,8-Tetramethyl-5,6,7,8-tetrahydronaphthalen-2-yl)thiazol-2-yl]piperidin-4-ylamine] | 100 to 1000 |
| CC1(C)CCC(C)(C)c2cc(-c3csc(N4CCC(N)C4)n3)ccc21 (stereo not drawn) [1-[4-(5,5,8,8-Tetramethyl-5,6,7,8-tetrahydronaphthalen-2-yl)thiazol-2-yl]pyrrolidin-3-ylamine] | 100 to 1000 |
| CC1(C)CCCc2cc(-c3csc(C4CCN(CCCCO)C4)n3)ccc21 (stereo not drawn) [4-{3-[4-(5,5-Dimethyl-5,6,7,8-tetrahydronaphthalen-2-yl)thiazol-2-yl]-pyrrolidin-1-yl}butan-1-ol] | 100 to 1000 |
| CC1(C)CCC(C)(C)c2cc(-c3csc(C4CCCN(CCCCCO)C4)n3)ccc21 (stereo not drawn) | > 1000 |
| CC1(C)CCC(C)(C)c2cc(-c3csc(N4CCCC(CCCO)C4)n3)ccc21 (stereo not drawn) | > 1000 |
| CC1(C)CCC(C)(C)c2cc(-c3csc(N4CCC(NCCO)CC4)n3)ccc21 | < 100 |
| CC1(C)CCc2cc(-c3csc(N4CCC(NCCO)CC4)n3)ccc21 [2-{1-[4-(1,1-Dimethylindan-5-yl)thiazol-2-yl]piperidin-4-ylamino}ethanol] | 100 to 1000 |
| CC1(C)CCC(C)(C)c2cc(-c3csc(N4CCC(CCN)CC4)n3)ccc21 | 100 to 1000 |

| SMILES | IC50 [nM] |
| --- | --- |
| CC1(C)CCCc2cc(-c3csc(N4CCC(N(CCO)CCO)CC4)n3)ccc21 | 100 to 1000 |
| CC1(C)CCC(C)(C)c2cc(-c3csc(C4CCCN(CCCCO)C4)n3)ccc21 (stereo not drawn) | > 1000 |
| CC1(C)CCCc2cc(-c3csc(N4CCC(N)CC4)n3)ccc21 | 100 to 1000 |
| CC1(C)CCCc2cc(-c3csc(N4CCN(CCCCCO)CC4)n3)ccc21 [5-{4-[4-(5,5-Dimethyl-5,6,7,8-tetrahydronaphthalen-2-yl)thiazol-2-yl]-piperazin-1-yl}pentan-1-ol] | > 1000 |
| CC1(C)CCC(C)(C)c2cc(-c3csc(C4CCCN(CCCO)C4)n3)ccc21 (stereo not drawn) | > 1000 |
| CC1(C)CCCc2cc(-c3csc(C4CCNC4)n3)ccc21 (stereo not drawn) [4-(5,5-Dimethyl-5,6,7,8-tetrahydronaphthalen-2-yl)-2-pyrrolidin-3-yl-thiazole] | 100 to 1000 |
| CC1(C)CCC(C)(C)c2cc(-c3csc(N4CCN(CCCCO)CC4)n3)ccc21 | 100 to 1000 |
| CC1(C)CCC(C)(C)c2cc(-c3csc(C4CCCNC4)n3)ccc21 (stereo not drawn) [3-[4-(5,5,8,8-Tetramethyl-5,6,7,8-tetrahydronaphthalen-2-yl)thiazol-2-yl]piperidine] | 100 to 1000 |
| CC1(C)CCc2cc(-c3csc(N4CCC(N)CC4)n3)ccc21 [1-[4-(1,1-Dimethylindan-5-yl)thiazol-2-yl]piperidin-4-ylamine] | 100 to 1000 |
| CC1(C)CCC(C)(C)c2cc(-c3csc(N4CCCC(CCO)C4)n3)ccc21 (stereo not drawn) | 100 to 1000 |
| CC1(C)CCC(C)(C)c2cc(-c3csc(N4CCC(C5CCNCC5)CC4)n3)ccc21 [1-[4-(5,5,8,8-Tetramethyl-5,6,7,8-tetrahydronaphthalen-2-yl)thiazol-2-yl]-4,4′-bipiperidinyl] | 100 to 1000 |
| CC1(C)CCC(C)(C)c2cc(-c3csc(N4CCN(CCO)CC4)n3)ccc21 | 100 to 1000 |
| CC1(C)CCC(C)(C)c2cc(-c3csc(N4CCCC(C(=O)NCCO)C4)n3)ccc21 (stereo not drawn) | 100 to 1000 |
| CC1(C)CCC(C)(C)c2cc(-c3csc(N4CCC(N5CCC(N)C5)CC4)n3)ccc21 (stereo not drawn) | 100 to 1000 |
| CC1(C)CCC(C)(C)c2cc(-c3csc(N4CCC(C(=O)NCCO)CC4)n3)ccc21 | > 1000 |
| CC1(C)CCC(C)(C)c2cc(-c3csc(N4CCNCC4)n3)ccc21 [1-[4-(5,5,8,8-Tetramethyl-5,6,7,8-tetrahydronaphthalen-2-yl)thiazol-2-yl]piperazine] | 100 to 1000 |
| CC1(C)CCC(C)(C)c2cc(-c3csc(N4CCC(CCN5CCCC5)CC4)n3)ccc21 [4-(2-Pyrrolidin-1-ylethyl)-1-[4-(5,5,8,8-tetramethyl-5,6,7,8-tetrahydronaphthalen-2-yl)thiazol-2-yl]piperidine] | 100 to 1000 |
| CC(=O)N1CCC(c2csc(-c3ccc4c(c3)C(C)(C)CCC4(C)C)n2)CC1 | 100 to 1000 |
| CC1(C)CCC(C)(C)c2cc(-c3csc(N4CCN(CCCCCO)CC4)n3)ccc21 | 100 to 1000 |
| CC1(C)CCCc2cc(-c3csc(N4CCN(CCCCO)CC4)n3)ccc21 | 100 to 1000 |
